Reference: patent US20150224089A1, “COMBINATIONS OF IKKi/TBK1 INHIBITORS WITH BETA ADRENERGIC AGONISTS OR SYMPATHETIC NERVOUS SYSTEM ACTIVATORS” (THE REGENTS OF THE UNIVERSITY OF MICHIGAN, priority 2014, published 2015)

Columns and labels:
inguinal WAT = test: Immunoblots in ex vivo inguinal WAT lysates after CL-316,243 treatment; set-up: species or system mice
Procedure: (A) Fold increase in serum FFA (left panel) and glycerol (right panel) levels 15 min after CL-316,243 injection in ND- or HFD-fed mice treated with amlexanox or vehicle control for 4 days. (B) Glycerol release from ex vivo epididymal (left panel) and inguinal (right panel) WATs after 1 hr pretreatment with amlexanox or vehicle. CL-316,243 treatment was started at time zero. (C) Immunoblots in inguinal WAT lysates from FIG. 5B after 60 min of CL-316,243 treatment. (D) cAMP levels in epididymal WAT 20 min after CL-316,243 (CL) or saline control injection in HFD-fed mice treated with amlexanox or vehicle control for 4 days. (E) Immunoblots in epididymal WAT 5 min after CL-316,243 or saline control injection in HFD-fed mice treated with amlexanox or vehicle control for 4 days. (F) Relative oxygen comsumption of mice in each treatment group. […]

diet-induced obese mice = test: Serum FFA and glycerol after CL-316,243 injection in ND- or HFD-fed mice; assay type: in vivo; conditions: amlexanox-treated HFD mice compared to vehicle-treated HFD-fed mice; oral gavage 4 days
Procedure: (A) Fold increase in serum FFA (left panel) and glycerol (right panel) levels 15 min after CL-316,243 injection in ND- or HFD-fed mice treated with amlexanox or vehicle control for 4 days. (B) Glycerol release from ex vivo epididymal (left panel) and inguinal (right panel) WATs after 1 hr pretreatment with amlexanox or vehicle. CL-316,243 treatment was started at time zero. (C) Immunoblots in inguinal WAT lysates from FIG. 5B after 60 min of CL-316,243 treatment. (D) cAMP levels in epididymal WAT 20 min after CL-316,243 (CL) or saline control injection in HFD-fed mice treated with amlexanox or vehicle control for 4 days. (E) Immunoblots in epididymal WAT 5 min after CL-316,243 or saline control injection in HFD-fed mice treated with amlexanox or vehicle control for 4 days. (F) Relative oxygen comsumption of mice in each treatment group.
To test the functional importance of the noncanonical IKKs in maintaining energy balance in vivo, experiments were conducted during development of embodiments of the present invention to investigate whether the administration of a selective inhibitor of IKKε and TBK1, amlexanox, can reverse diet-induced catecholamine resistance in rodentsMice were fed a high fat or normal diet, treated them with amlexanox by oral gavage for 4 days (prior to the point when weight loss is seen), and then gave a single intraperitoneal (IP) injection of the β3-adrenergic agonist CL-316,243. Injection of CL-316,243 stimulated a threefold increase in serum FFA and glycerol levels in both vehicle and amlexanox-treated mice on normal diet (ND).

3T3-L1 adipocytes = test: Glycerol release (lipolysis) from 3T3-L1 adipocytes; assay type: cell-based; conditions: TNFα for 24 hr, different concentrations; 10 μM ISO or 50 μM FSK
Procedure: (A) Fold increase in Ucp1 expression in 3T3-L1 adipocytes expressing empty vector, Flag-IKKε, or Flag-IKKε K38A following treatment with or without 10 μM ISO (black bars) or 10 μM CL-316,243 (CL, gray bars) for 4 hr. (B) Glycerol release from 3T3-L1 adipocytes expressing empty vector (white bars), Flag-IKKε (black bars), or Flag-IKKε K38A (gray bars) treated with or without 10 μM ISO or 10 μM CL. (C) Immunoblots of whole cell lysates from FIG. 1B. Results were replicated in triplicate. D.E. stands for dark exposure and L.E. stands for light exposure. (D) Immunoblots of whole cell lysates from 3T3-L1 adipocytes expressing empty vector or Flag-IKKε treated with or without 50 μM FSK for 15 min. (E) cAMP levels from 3T3-L1 adipocytes expressing empty vector, Flag-IKKε, or Flag-IKKε K38A treated with or without 10 μM ISO or 50 μM FSK for 15 min.
(A) Glycerol release from 3T3-L1 adipocytes treated with or without different concentrations of TNFα as indicated for 24 hr followed by treatment with or without 10 μM ISO or 50 μM FSK. (B) cAMP levels from 3T3-L1 adipocytes treated with or without 100 ng/ml TNFα for 24 hr followed by treatment with or without 10 μM ISO or 50 μM FSK in the presence or absence of pretreatment of 50 μM Amlexanox (Am). (C) cAMP levels from 3T3-L1 adipocytes treated with or without 100 ng/ml TNFα for 24 hr followed by treatment with or without 50 μM FSK in the presence or absence of pretreatment of 1 μM CAY10576 (CAY). (D) Immunoblots of whole cell lysates from 3T3-L1 adipocytes treated with or without different concentrations of TNFα as same as FIG. 2A for 24 hr followed by treatment with or without 10 μM ISO or 50 μM FSK. Results were replicated in multiple experiments. ‘[’ indicates total HSL. ‘n.s.’ represents non-specific band. Arrow indicates CGI-58. (E) Immunoblots of whole cell lysates from 3T3-L1 adipocytes treated with or without 50 ng/ml TNFα or 100 μg/ml poly (I:C) for 24 hr followed by treatment with or without 10 μM ISO for 15 min in the presence or absence of pretreatment with increasing concentrations (0, 10, 50, and 200 μM) of amlexanox for 30 min.
The obesity-dependent increase was modeled in the noncanonical IKKs by overexpressing IKKε in 3T3-L1 adipocytes, followed by assay of glycerol release in response to ISO or CL-316,243. […] Overexpression of TBK1 reduced phosphorylation of HSL in response to isoproterenol or the adenylyl cyclase activator, forskolin (FIG. 1). Identical results were obtained when IKKε was overexpressed in 3T3-L1 adipocytes stimulated with forskolin (FIG. 1D), as detected by western blotting with an anti-phospho-PKA substrate motif antibody. […]

Molecule | phosphorylation of TBK1 at Ser172 (inguinal WAT; ex vivo amlexanox pretreatment, relief of feedback inhibition) | phosphorylation of HSL, perilipin and PKA substrate motif proteins in response to CL-316,243 (inguinal WAT; inguinal fat depot, amlexanox pretreatment vs vehicle-pretreated, 60 min CL-316,243) | fold increase in serum glycerol levels after CL-316,243 (diet-induced obese mice) | glycerol release in response to isoproterenol and forskolin (3T3-L1 adipocytes)
CC(C)c1ccc2oc3nc(N)c(C(=O)O)cc3c(=O)c2c1 [amlexanox, 2-amino-7-isopropyl-1-azaxanthone-3-carboxylic acid; 2-amino-7-isopropyl-5-oxo-5H-chromeno[2,3-b]pyridine-3-carboxylic acid] | increased | increased phosphorylation | significantly higher | 
TNFα |  |  |  | decreased glycerol release
